Laboratory results published in PMC6066186 (Angewandte Chemie (International ed. in English), 2018).
≈ marks a conversion by molar mass, not a printed value.

What was measured:
Mtb [1] = experiment: Growth inhibition; assay type: cell-based, Mycobacterium tuberculosis
Mtb [2] = experiment: Combination with isoniazid, Mtb growth; assay type: cell-based, Mycobacterium tuberculosis; conditions: 250 nm, in the absence of TQZ
[3] = tested on: ATP production through oxidative phosphorylation in membrane vesicles derived from mycobacteria; experiment: NADH-initiated ATP synthesis in mycobacterial membrane vesicles; assay type: biochemical; conditions: read-out: IC50, inhibition of ATP synthesis, NADH added
Mtb [4] = conditions: cited from earlier work
[5] = tested on: NADH oxidation in purified membranes; conditions: cited from earlier work

Compound: O=C(CSc1nc2cccc(F)c2c(=O)[nH]1)NC1CCCCC1 [CBR-3465]
- MIC (Mtb [1]): 0.16 µM (≈ 0.0537 µg/mL)

Compound: NNC(=O)c1ccncc1 [INH, isoniazid]
- effect on Mtb replication (Mtb [2]): completely prevents replication

Compound: COc1nc2ccc(Br)cc2cc1[C@@H](c1ccccc1)[C@@](O)(CCN(C)C)c1cccc2ccccc12 [bedaquiline]
- IC50 [3]: 6.9 nM

Compound: C=C(C)[C@H]1Cc2c(ccc3c2O[C@@H]2COc4cc(OC)c(OC)cc4[C@@H]2C3=O)O1 [rotenone]
- effect on mycobacterial growth (Mtb [4]): little effect
- effect on NADH oxidation [5]: little effect
